Reference: patent US7985072B2, “Method and apparatus for tooth rejuvenation and hard tissue modification” (Rejuvedent LLC, priority 2005, dated 2011)

What was measured:
[1] = 180-minute exposure of tooth halves to citric acid solution or gel, then methylene blue; settings: pH=1.5, +20° C., 180 minutes
Protocol: Exposure in both cases was for 180 minutes and the tooth was then washed in distilled water. […] The tooth was then exposed to an aqueous solution of methylene blue.

[2] = test system: premolar teeth of a subject; assay: Example 1: in-office tooth whitening treatment
[3] = Six-hour exposure of extracted teeth to gel or citric acid; settings: +24° C.
Text: Control of etching using highly concentrated edible acid can be achieved by using different additives. The interaction between acid and hard tissue leads to a dissolution of mineral components and modification of organic components. Three types of dissolution are known: Type I, where enamel rods are removed preferentially, Type II, where the organic matrix is removed preferentially, and Type III, where both Type I and Type II dissolution take place. […] The present invention, proposes to control the etching process, using edible acid with a special additive. One of control mechanisms involves additives, including, but not limited to, the ions of Ca Cr, Ba Cd, Mg, P, SiF, and their compounds, such as PO4. Other non-organic or organic additives may also be used. Additions of such ion combinations may slow the dissolution of the inter-prismatic regions or may provide for re-crystallization of hydroxyapatite crystallites, or the building of new crystallites of fluroapatite. The use of such additives can be effective in the control of tooth etching, or in the preparation of the tooth surface for the application of a protective or cosmetic coating, or for the thermal re-crystallization of the tooth surface.
Extracted teeth with healthy enamel were used in the experiment. One half of enamel surface of each tooth was covered with a protective cover (“control side”). The other side (“treatment side”) was left unprotected. […]

[4] = Example 3: thermal treatment of etched enamel impregnated by sapphire particles (CO2 laser), in vitro; set-up: species or system human; settings: pH=1.5, approximately +50° C., approximately 10 minutes
Protocol: The authors produced a durable, white colored coating on the enamel surface in an in-vitro experiment as described below. The experiment was conducted on freshly extracted teeth from subjects in the 25-40 age group. The teeth were extracted for periodontal reasons. All specimens had healthy, intact enamel. Prior to the experiment, the specimen were stored for no longer than two weeks in a physiological solution, in a dark place at a temperature of approximately +4° C.
One half of the crown of the tooth was coated with varnish. […] The tooth was exposed to the acid for a period of approximately 10 minutes, which was sufficient for the formation of a porous layer of enamel, approximately 50 μm in thickness on unprotected side of the specimen. […]
Thermocycling test was performed after described treatment The tooth was placed into two alternate water baths, one at +25° C. and the other at +90° C., for a period of 2 seconds into each bath, for a total immersion of 100 cycles. The hardness of the treated and untreated sides was assessed, before and after thermocycling, using a dental probe. The strength of the adhesion of the newly formed layer with sapphire particles to the underlying enamel was also assessed using the tip of the dental probe in an attempt to dislodge the newly formed layer at the border.

gingival tissue = assay: Safe treatment time (STT): onset of discomfort on subjects' gingival tissue; type: in vivo, human; set-up: key to effect of discomfort on gingival tissue: “−” means that the subject experienced no discomfort; “+” means that some discomfort was reported
Protocol: It was discovered, that a high concentration and low pH acid can work well for exposure times long enough to produce significant changes to hard tissue. The use of high concentration, edible acids for treatment of hard tissues is limited by the action of such acids on soft tissues. […] The typical application time for the desired depth of etching can be from 1-5 minutes for home use, and up for up to 10-20 minutes for professional use. The safe treatment time (STT) is defined as the time during which acid can interact with the soft tissues without damaging them. The STT depends on the acid concentration and the temperature, i.e. STT (pH,T), where pH is the pH of the acid, and T is the temperature of the acid. […] The experiment was conducted on subjects with healthy oral tissues. Prior to treatment, the acid was heated to a control temperature T, using a thermostat, and a small volume (approximately 5×10^−3 ml) of acid was applied to an area of the subject's gingival tissue. The thermo-relaxation time of such a volume is approximately 5-10 seconds. To provide for a relatively constant temperature on the tissue surface, the acid was reapplied at the same temperature T to the same area every 5-10 seconds. This procedure was repeated until the subject reported discomfort. A feeling of discomfort always precedes tissue damage. Therefore, the time of the onset of discomfort can be used as an estimate of the STT with a certain safety margin.

O=C(O)CC(O)(CC(=O)O)C(=O)O [citric acid]
coloration by aqueous methylene blue after exposure [1]: colored by methylene blue
type of enamel etching [1]: Type I etching
whitening effect [1]: strong whitening effect
change in gingival tissue and hypersensitivity ([2]; after treatment or during follow up appointments): No change in gingival tissue and no hypersensitivity
gloss of treatment side versus control side ([2]; immediately after treatment): less glossy than the control side
pain or discomfort throughout the treatment ([2]; pH=1.5, average +50° C., 10 minutes): did not report any pain or discomfort
hardness of treated surface (dental probe / versus control side) [3]: easily damaged by scratching with a dental probe
predominant etching pattern [3]: Type I etching
specular reflection property of tooth surface [3]: completely lost its specular reflection property
whitening effect of treated sides [3]: comparable
thickness of porous layer of enamel formed [4]: approximately 50 μm
safe treatment time (STT) (gingival tissue; 50° C., pH of 1.5): greater than 8 minutes
damage to soft tissues (gingival tissue; high concentrations and high temperatures (up to 90° C.)): did not cause damage to soft tissues
effect of discomfort on gingival tissue (gingival tissue; pH=1.5, T +20 °C, t 1 min): −
effect of discomfort on gingival tissue (gingival tissue; pH=1.5, T +20 °C, t 2 min): −
effect of discomfort on gingival tissue (gingival tissue; pH=1.5, T +20 °C, t 3 min): −
effect of discomfort on gingival tissue (gingival tissue; pH=1.5, T +20 °C, t 4 min): −
effect of discomfort on gingival tissue (gingival tissue; pH=1.5, T +20 °C, t 5 min): −
effect of discomfort on gingival tissue (gingival tissue; pH=1.5, T +20 °C, t 6 min): −
effect of discomfort on gingival tissue (gingival tissue; pH=1.5, T +20 °C, t 7 min): −
effect of discomfort on gingival tissue (gingival tissue; pH=1.5, T +20 °C, t 8 min): −
effect of discomfort on gingival tissue (gingival tissue; pH=1.5, T +20 °C, t 9 min): −
effect of discomfort on gingival tissue (gingival tissue; pH=1.5, T +20 °C, t 10 min): −
effect of discomfort on gingival tissue (gingival tissue; pH=1.5, T +20 °C, t 11 min): −
effect of discomfort on gingival tissue (gingival tissue; pH=1.5, T +20 °C, t 12 min): +
effect of discomfort on gingival tissue (gingival tissue; pH=1.5, T +36 °C, t 1 min): −
effect of discomfort on gingival tissue (gingival tissue; pH=1.5, T +36 °C, t 2 min): −
effect of discomfort on gingival tissue (gingival tissue; pH=1.5, T +36 °C, t 3 min): −
effect of discomfort on gingival tissue (gingival tissue; pH=1.5, T +36 °C, t 4 min): −
effect of discomfort on gingival tissue (gingival tissue; pH=1.5, T +36 °C, t 5 min): −
effect of discomfort on gingival tissue (gingival tissue; pH=1.5, T +36 °C, t 6 min): −
effect of discomfort on gingival tissue (gingival tissue; pH=1.5, T +36 °C, t 7 min): −
effect of discomfort on gingival tissue (gingival tissue; pH=1.5, T +36 °C, t 8 min): −
effect of discomfort on gingival tissue (gingival tissue; pH=1.5, T +36 °C, t 9 min): −
effect of discomfort on gingival tissue (gingival tissue; pH=1.5, T +36 °C, t 10 min): +
effect of discomfort on gingival tissue (gingival tissue; pH=1.5, T +50 °C, t 1 min): −
effect of discomfort on gingival tissue (gingival tissue; pH=1.5, T +50 °C, t 2 min): −
effect of discomfort on gingival tissue (gingival tissue; pH=1.5, T +50 °C, t 3 min): −
effect of discomfort on gingival tissue (gingival tissue; pH=1.5, T +50 °C, t 4 min): −
effect of discomfort on gingival tissue (gingival tissue; pH=1.5, T +50 °C, t 5 min): −
effect of discomfort on gingival tissue (gingival tissue; pH=1.5, T +50 °C, t 6 min): −
effect of discomfort on gingival tissue (gingival tissue; pH=1.5, T +50 °C, t 7 min): −
effect of discomfort on gingival tissue (gingival tissue; pH=1.5, T +50 °C, t 8 min): +
effect of discomfort on gingival tissue (gingival tissue; pH=1.5, T +70 °C, t 1 min): −
effect of discomfort on gingival tissue (gingival tissue; pH=1.5, T +70 °C, t 2 min): −
effect of discomfort on gingival tissue (gingival tissue; pH=1.5, T +70 °C, t 3 min): −
effect of discomfort on gingival tissue (gingival tissue; pH=1.5, T +70 °C, t 4 min): −
effect of discomfort on gingival tissue (gingival tissue; pH=1.5, T +70 °C, t 5 min): −
effect of discomfort on gingival tissue (gingival tissue; pH=1.5, T +70 °C, t 6 min): +
effect of discomfort on gingival tissue (gingival tissue; pH=1.5, T +90 °C, t 1 min): −
effect of discomfort on gingival tissue (gingival tissue; pH=1.5, T +90 °C, t 2 min): −
effect of discomfort on gingival tissue (gingival tissue; pH=1.5, T +90 °C, t 3 min): +
